What was measured:
Type in all cases: functional
Set-up in all cases: scale not given here
Schistosoma mansoni [1] = tested on: Schistosoma mansoni
Schistosoma mansoni [2] = tested on: Schistosoma mansoni; remark: listed apart in the source
Schistosoma mansoni [3] = tested on: Schistosoma mansoni; remark: listed apart in the source

| SMILES | Toxicity (Schistosoma mansoni [1]) | Toxicity (Schistosoma mansoni [2]) | Toxicity (Schistosoma mansoni [3]) |
| --- | --- | --- | --- |
| CN(C)c1ccc(C=Cc2nc(=O)c3ccccc3o2)cc1 | 0 | 0 | 0 |
| Cc1ccccc1OCCSc1nc2ccc(NC(=O)c3ccccc3)cc2s1 | 0 | 0 | 0 |
| CN1CCN(c2ccc(Nc3c4ccccc4nc4ccccc34)cc2)CC1 | 4 | 2 | 4 |
| Oc1c(C(Nc2ccccn2)c2cccc(Oc3ccccc3)c2)ccc2cccnc12 (configuration not stated) | 4 | 0 | 4 |
| COc1ccc(C2=C(c3ccc(OC)cc3)C3(c4ccccc4)C(=O)C2(c2ccccc2)C2C(=O)N(c4ccc(C)cc4)C(=O)C23)cc1 (configuration not stated) | 0 | 0 | 0 |
| c1ccc(CNc2nc(Nc3ccccc3)nc3ccccc23)cc1 | 2 | 2 | 2 |
| Cl.c1ccc2c(NCCCCCCNc3c4c(nc5ccccc35)CCCC4)c3c(nc2c1)CCCC3 | 4 | 4 | 4 |
| COc1cccc(NC(=O)Cn2c(C)c(C#N)c3ccccc32)c1 | 0 | 0 | 0 |
| O=C1CC(O)(C(F)(F)C(F)(F)F)Oc2ccccc21 (configuration not stated) | 0 | 0 | 1 |
| COc1ccc(C2C(C(=O)Nc3cccc(OC)c3)c3ccccc3C(=O)N2C2CCCCC2)cc1 (configuration not stated) | 0 | 0 | 0 |
| O=C(Nc1cccc(-c2nc3ccccc3[nH]2)c1)c1cccc(NC(=O)c2ccco2)c1 | 0 | 0 | 1 |
| Cc1cc(Nc2ccc(Cl)cc2)n2nc(C(F)(F)F)nc2n1 | 0 | 0 | 0 |
| O=C(Nc1ccc(N2CCCCC2)c(Cl)c1)c1ccc(Br)o1 | 0 | 0 | 0 |
| CCCN(CCC)CC(O)COc1ccccc1C(=O)Nc1ccccc1 (configuration not stated) | 0 | 0 | 0 |
| COc1ccc(C(C)=O)cc1N1C(=O)C2C(C1=O)C1(c3ccccc3)C(=O)C2(c2ccccc2)C(c2ccc(C)cc2)=C1c1ccc(C)cc1 (configuration not stated) | 0 | 0 | 0 |
| CCc1c(C)c(=N)c2ccccc2n1C.I | 0 | 0 | 0 |
| COc1ccc(-c2c(C)nn3c(N)c(C#N)cnc23)cc1OC | 1 | 1 | 1 |
| COc1cccc(C2(C)Nc3ccccc3-c3nc4ccccc4n32)c1 (configuration not stated) | 0 | 0 | 0 |
| Cc1cc(Nc2ccc3ccccc3c2)n2ncnc2n1 | 1 | 0 | 1 |
| CCN(CC)CCNc1ccnc2cc(Cl)ccc12 | 0 | 0 | 0 |
| CCC(=O)Nc1nnc(Cc2ccc(OC)c(OC)c2)s1 | 0 | 0 | 0 |
| Cc1cc(C=C2SC(=Nc3ccccc3)N(C3CCCC3)C2=O)c(C)n1-c1ccc(Cl)cc1 | 0 | 0 | 0 |
| CCCCC(O)(c1ccc(Cl)cc1)C(CN1CCOCC1)c1ccc(Cl)cc1.Cl (configuration not stated) | 0 | 0 | 4 |

| SMILES | Toxicity (Schistosoma mansoni [1]) | Toxicity (Schistosoma mansoni [2]) | Toxicity (Schistosoma mansoni [3]) |
| --- | --- | --- | --- |
| Nc1ccc(-c2nc3cc(Cc4ccc5[nH]c(-c6ccc(N)cc6)nc5c4)ccc3[nH]2)cc1 | 1 | 1 | 1 |
| CCCCCn1c(=N)n(CC(O)COc2cccc(C)c2)c2ccccc21.Cl (configuration not stated) | 4 | 2 | 4 |
| COc1ccc(Nc2nc(N/N=C/c3ccc(O)cc3)nc(Nc3ccc([N+](=O)[O-])cc3)n2)cc1 | 0 | 0 | 0 |
| COc1cc2cc(C(=O)Nc3ccccc3)c(N)nc2cc1OC | 0 | 0 | 2 |
| O=C(Nc1ccc(-c2nc3ccccc3[nH]2)cc1)c1ccc(Cl)c(Cl)c1 | 0 | 0 | 0 |
| CCOC(=O)c1c(C)n(-c2ccc(Cl)cc2)c2ccc(OC(=O)C=Cc3ccccc3)cc12 | 0 | 0 | 0 |
| CC(=O)NCCc1nc2ccccc2n1Cc1ccc(C(C)C)cc1 | 0 | 0 | 0 |
| COc1ccc(-c2nc(N3CCN(C(=O)C4CCCCC4)CC3)c3c4c(sc3n2)CCCC4)cc1 | 0 | 0 | 0 |
| COc1cc(C(=O)Nc2nc3c(cc4c5c(cccc53)CC4)s2)cc(OC)c1OC | 0 | 0 | 0 |
| CCN(CC)c1ccc(NC(=O)c2cccs2)cc1 | 0 | 0 | 0 |
| CCOc1c(Cl)cc(CNC(C)C(O)c2ccccc2)cc1OC (configuration not stated) | 0 | 0 | 0 |
| O=[N+]([O-])c1ccc(C=NNc2nc3ccccc3[nH]2)cc1 | 1 | 0 | 0 |
| Brc1ccc(Nc2nc3ccccc3nc2Nc2ccc(Br)cc2)cc1 | 4 | 3 | 4 |
| CCOC(=O)c1c(C)n(-c2ccccc2)c2ccc(OC(=O)c3cc(OC)c(OC)c(OC)c3)cc12 | 0 | 0 | 0 |
| COc1ccc2c(=O)cc(C(Cl)(Cl)Cl)oc2c1 | 0 | 0 | 3 |
| CC1CCCCN1CCCNC(=O)c1ccc2c(c1)sc1nc(-c3ccc(F)cc3)cn12 (configuration not stated) | 0 | 2 | 1 |
| O=C(Nc1ccc(Cl)c(Cl)c1)Nc1ccc(Cl)c(Cl)c1 | 3 | 3 | 4 |
| CCOC(=O)c1ccc2nc(-c3ccccc3)cc(O)c2c1 | 0 | 0 | 4 |
| COc1cc(C(=O)ON=C(N)Cc2cccc3ccccc23)cc(OC)c1OC | 3 | 0 | 4 |
| CCCc1c(C)nc2ccccc2c1O | 0 | 0 | 0 |
| Br.Cc1ccc(C)c(-c2csc(Nc3ccc(C)c(C)c3)n2)c1 | 1 | 0 | 0 |
| CN1c2ccccc2N(C)C1c1ccc2c(c1)OCO2 | 0 | 1 | 0 |
| CCOC(=O)C1=CN(C)C=C(C(=O)OCC)C1c1cc(Br)c(OCC)c(OC)c1 | 0 | 0 | 0 |

| SMILES | Toxicity (Schistosoma mansoni [1]) | Toxicity (Schistosoma mansoni [2]) | Toxicity (Schistosoma mansoni [3]) |
| --- | --- | --- | --- |
| O=C(NCCCN1CCC(N2CCCCC2)CC1)C1=Cc2cc(Br)ccc2OC1 | 1 | 0 | 4 |
| COc1ccc(C2N(C)c3ccccc3N2C)cc1 | 0 | 0 | 0 |
| O=C(NC1CCCC1)c1ccc(N2CCC(NCc3cccc(C(F)(F)F)c3)CC2)cc1 | 0 | 0 | 1 |
| CC1CC2=C(CC1CNCCCN(C)C)C(C)(C)CCC2 (configuration not stated) | 4 | 4 | 4 |
| CC(C)CCNCC(O)Cn1c2ccccc2c2ccccc21.Cl (configuration not stated) | 4 | 2 | 4 |
| CCCOCc1cc(CN2CCN(c3cccc(Cl)c3)CC2)c(O)c2ncccc12 | 4 | 3 | 4 |
| COc1ccc(C(=O)Nc2ccc3nc(N4CCCCC4)cc(C)c3c2)cc1OC | 0 | 0 | 0 |
| O=C1c2ccc3c4c(ccc(c24)C(=O)N1CCCCO)C(=O)N(CCCCO)C3=O | 0 | 0 | 4 |
| COc1ccc(C(=O)NC(c2ccccc2Cl)c2cc(Cl)c3cccnc3c2O)cc1 (configuration not stated) | 2 | 0 | 4 |
| CCC(O)c1ccc(Br)cc1NC(=O)c1cccc(Cl)c1 (configuration not stated) | 0 | 0 | 0 |
| OC1=C2C(=Nc3ccccc3SC2c2ccccc2)c2ccccc21 (configuration not stated) | 0 | 0 | 0 |
| CCOc1ccc(C2N(C)c3ccccc3N2C)cc1 | 0 | 2 | 0 |
| Cc1cc(NC(=O)C2c3ccccc3C(=O)N(CC(C)C)C2c2cccs2)no1 (configuration not stated) | 0 | 0 | 0 |
| O=C(Cc1ccccc1)NC(c1ccc(Cl)cc1)c1c(O)ccc2ccccc12 (configuration not stated) | 1 | 2 | 2 |
| COc1ccc(Nc2cc(C)nc(NCc3ccccc3)n2)cc1 | 3 | 2 | 3 |
| FC(F)(F)c1cccc(Nc2nc3ccccc3nc2Nc2cccc(C(F)(F)F)c2)c1 | 4 | 3 | 4 |
| CCOc1ccccc1NC(=O)CN1CCN(C(=O)c2ccco2)CC1 | 0 | 0 | 0 |
| CC(Oc1ccc(NC(=O)c2cccs2)cc1)C(=O)c1ccc(Cl)cc1 (configuration not stated) | 0 | 0 | 0 |
| O=C(O)C(=O)O.Oc1ccccc1CN1CCN(C(c2ccccc2)c2ccccc2)CC1 | 0 | 0 | 0 |
| CN1CCN(c2ncnc3c2[nH]c2ccc(Cl)cc23)CC1 | 0 | 0 | 0 |
| CN1CCN(c2c3c(c(C#N)c4nc5ccccc5n24)CCC3)CC1 | 0 | 0 | 0 |
| COc1ccc(NC(=O)C2c3ccccc3C(=O)N(CC(C)C)C2c2cccs2)cc1Cl (configuration not stated) | 0 | 0 | 0 |
| COc1ccc(C=C2SC(=N)N(c3ccccc3OC)C2=O)cc1 | 0 | 0 | 0 |
